Values of other authors in article PMC11938273 (Journal of Chemical Information and Modeling, 2025).
Where a name gives a salt, the structure may show the parent alone.

Details: in vivo; cited from earlier work

| Compound | CNS status |
| --- | --- |
| COC(=O)c1cnc2n1CCc1ccccc1C2=C1CCN(CCc2ccc(OCc3ccc4ccccc4n3)cc2)CC1 [Laniquidar, methyl 11-(1-(4-(quinolin-2-ylmethoxy)phenethyl)piperidin-4-ylidene)-6,11-dihydro-5H-benzo[d]imidazo[1,2-a]azepine-3-carboxylate] | Efflux transporter substrate |
| CC#CCn1c(N2CCC[C@@H](N)C2)nc2c1c(=O)n(Cc1nc(C)c3ccccc3n1)c(=O)n2C [Linagliptin, 8-(3-Amino-1-piperidinyl)-7-(2-butyn-1-yl)-3-methyl-1-[(4-methyl-2-quinazolinyl)methyl]-3,7-dihydro-1H-purine-2,6-dione] | Negative |
| CNCC(O)CCN1c2ccccc2N(c2ccccc2)S1(=O)=O (stereo not shown) [Me@HAPTHI, 4-(2,2-Dioxido-3-phenyl-2,1,3-benzothiadiazol-1(3H)-yl)-1-(methylamino)-2-butanol] | Negative |
| O=S(=O)(O)CCS [Mesna (Coenzyme M), 2-mercaptoethane sulfonic acid] | Negative |
| COC(=O)c1cncn1[C@H](C)c1ccccc1 [Metomidate, (R)-methyl 1-(1-phenylethyl)-1H-imidazole-5-carboxylate] | Positive |
| Cn1c2c(c3ccccc31)C[C@@]1(O)C3Cc4ccc(O)c5c4C1(CCN3CC1CC1)[C@H]2O5 (stereo partly drawn) [N-Methylnaltrinidole, (8aS,14bR)-7-(cyclopropylmethyl)-14-methyl-5,6,7,8,8a,9,14, 14b-octahydro-4,8-methanobenzofuro[2,3-a]pyrido [4,3-b]carbazole-1,8a-diol] | Positive |
| Cc1c(O)cccc1C(=O)N[C@@H](CSc1ccccc1)[C@H](O)CN1C[C@H]2CCCC[C@H]2C[C@H]1C(=O)NC(C)(C)C [Nelfinavir, (3S,4aS,8aS)-2-[(2R,3R)-2-Hydroxy-3-[(3-hydroxy-2-methylbenzoyl)amino]-4-(phenylsulfanyl)butyl]-N-(2-methyl-2-propanyl)decahydro3-isoquinolinecarboxamide] | Efflux transporter substrate |
| CN(C)C(=O)Oc1cccc([N+](C)(C)C)c1 [Neostigmine, 3-[(Dimethylcarbamoyl)oxy]-N,N,N-trimethylanilinium] | Negative |
| COC(=O)C1=C(C)NC(C)=C(C(=O)OCCN(C)Cc2ccccc2)C1c1cccc([N+](=O)[O-])c1 (stereo not shown) [Nicardipine, 2-[Benzyl(methyl)amino]ethyl methyl 2,6-dimethyl-4-(3-nitrophenyl)-1,4-dihydro-3,5-pyridinedicarboxylate] | Efflux transporter substrate |
| Fc1ncccc1OCC1C=CCN1 (stereo not shown) [Nifene, 3-((2,5-dihydro-1H-pyrrol-2-yl)methoxy)-2-fluoropyridine] | Positive |
| Cc1nccn1CC1CCc2c(c3ccccc3n2C)C1=O (stereo not shown) [Ondansetron, 9-Methyl-3-[(2-methyl-1H-imidazol-1-yl)methyl]-1,2,3,9-tetrahydro-4H-carbazol-4-one] | Efflux transporter substrate |
| COC(=O)[C@H]1[C@@H](c2ccc(C)cc2)C[C@@H]2CC[C@H]1N2C/C=C/I [PE2i, (1R,2S,3S,5S)-methyl 8-((E)-3-iodoallyl)-3-(p-tolyl)-8-azabicyclo[3.2.1]octane-2-carboxylate] | Positive |
| CCC(C)N(C)C(=O)c1cc2ccccc2c(-c2ccccc2Cl)n1 (stereo not shown) [PK11195, N-(sec-butyl)-1-(2-chlorophenyl)-N-methylisoquinoline3-carboxamide] | Positive |
| CCC(=O)OC1CCNCC1 [PMP, piperidin-4-yl propionate] | Positive |
| CCC(=O)NS(=O)(=O)c1ccc(-c2c(-c3ccccc3)noc2C)cc1 [Parecoxib, N-{[4-(5-Methyl-3-phenyl-1,2-oxazol4-yl)phenyl]sulfonyl}propanamide] | Negative |
| CNC(=O)Oc1ccc2c(c1)[C@]1(C)CCN(C)[C@@H]1N2C [Physostigmine, (3aS,8aR)-1,3a,8-trimethyl-1,2,3,3a,8,8a-hexahydropyrrolo[2,3-b]indol-5-yl methylcarbamate] | Positive |
| CN/C(=C\[N+](=O)[O-])NCCSCc1ccc(CN(C)C)o1 [Ranitidine, (E)-N-{2-[({5-[(Dimethylamino)methyl]-2-furyl}methyl)sulfanyl]ethyl}-N′-methyl-2-nitro-1,1-ethenediamine] | Efflux transporter substrate |

| Compound | CNS status |
| --- | --- |
| COC(=O)c1ccccc1-c1c2ccc(=N)cc-2oc2cc(N)ccc12 [Rhodamine 123, 6-Amino-9-[2-(methoxycarbonyl)phenyl]-3H-xanthen-3-iminium] | Efflux transporter substrate |
| CC(C)c1nc(CN(C)C(=O)N[C@H](C(=O)N[C@@H](Cc2ccccc2)C[C@H](O)[C@H](Cc2ccccc2)NC(=O)OCc2cncs2)C(C)C)cs1 [Ritonavir, (1E,2S)-N-[(2S,4S,5S)-4-Hydroxy-5-{(E)-[hydroxy(1,3-thiazol-5-ylmethoxy)methylene]amino}-1,6-diphenyl-2-hexanyl]-2-[(E)-(hydroxy{[(2-isopropyl-1,3-thiazol-4-yl)methyl](methyl)amino}methylene)amino]-3-methylbutanimidic acid] | Efflux transporter substrate |
| CS(=O)(=O)c1ccc(C2=C(c3ccccc3)C(=O)OC2)cc1 [Rofecoxib, 4-[4-(Methylsulfonyl)phenyl]-3-phenyl2(5H)-furanone] | Negative |
| COc1ccc(C2CNC(=O)C2)cc1OC1CCCC1 (stereo not shown) [Rolipram, 4-(3-(Cyclopentyloxy)-4-methoxyphenyl)pyrrolidin-2-one] | Positive |
| CC[C@H]1OC(=O)[C@H](C)[C@@H](O[C@H]2C[C@@](C)(OC)[C@@H](O)[C@H](C)O2)[C@H](C)[C@@H](O[C@@H]2O[C@H](C)C[C@H](N(C)C)[C@H]2O)[C@](C)(O)C[C@@H](C)/C(=N\OCOCCOC)[C@H](C)[C@@H](O)[C@]1(C)O [Roxithromycin] | Negative |
| CN1CCc2cc(Cl)c(O)cc2[C@@H](c2ccccc2)C1 [SCH-23390 hydrochloride, (R)-8-chloro-3-methyl-5-phenyl-2,3,4,5-tetrahydro1H-benzo[d]azepin-7-ol] | Positive |
| COCC1=C(C(=O)OC)[C@H](c2ccc(F)c(F)c2)N(C(=O)NCCCN2CCC(c3cccc(NC(C)=O)c3)CC2)C(=O)N1 [SNAP7941, methyl 3-((3-(4-(3-acetamidophenyl)piperidin-1-yl)propyl)carbamoyl)-4-(3,4-difluorophenyl)-6-(methoxymethyl)-2-oxo-1,2,3,4-tetrahydropyrimidine-5-carboxylate] | Efflux transporter substrate |
| Cc1nc2n(c(=O)c1CCN1CCC(C(=O)c3ccc(F)cc3)CC1)CCS2 [Setoperone, 6-(2-(4-(4-Fluorobenzoyl)piperidin-1-yl)ethyl)-7-methyl-2H-thiazolo[3,2-a]pyrimidin-5(3H)-one] | Positive |
| N[C@@H](CC(=O)N1CCn2c(nnc2C(F)(F)F)C1)Cc1cc(F)c(F)cc1F [Sitagliptin, (3R)-3-Amino-1-[3-(trifluoromethyl)-5,6-dihydro[1,2,4]triazolo[4,3-a]pyrazin-7(8H)-yl]-4-(2,4,5-trifluorophenyl)-1-butanone] | Negative |
| CC(C)NCC(O)c1ccc(NS(C)(=O)=O)cc1 (stereo not shown) [Sotalol, N-{4-[1-Hydroxy-2-(isopropylamino)ethyl]phenyl}methanesulfonamide] | Negative |
| COc1cc2c(cc1OC)CN(CCc1ccc(NC(=O)c3cc(OC)c(OC)cc3NC(=O)c3cnc4ccccc4c3)cc1)CC2 [Tariquidar, N-[2-({4-[2-(6,7-Dimethoxy-3,4-dihydro-2(1H)-isoquinolinyl)ethyl]phenyl}carbamoyl)-4,5-dimethoxyphenyl]-3-quinolinecarboxamide] | Efflux transporter substrate |
| COc1cc([C@@H]2c3cc4c(cc3[C@@H](O[C@@H]3O[C@@H]5CO[C@@H](c6cccs6)O[C@H]5[C@H](O)[C@H]3O)[C@H]3COC(=O)[C@H]23)OCO4)cc(OC)c1O [Teniposide, (5S,5aR,8aR,9R)-9-(4-Hydroxy-3,5-dimethoxyphenyl)-8-oxo-5,5a,6,8,8a,9-hexahydrofuro[3′,4′:6,7]naphtho[2,3-d][1,3]dioxol-5-yl 4,6-O-(2-thienylmethylene)-β-D-glucopyranoside] | Efflux transporter substrate |
| Cc1ccc(C(=O)c2cc(O)c(O)c([N+](=O)[O-])c2)cc1 [Tolcapone, (3,4-dihydroxy-5-nitrophenyl)(p-tolyl)methanone] | Negative |
| CC[C@]1(O)C[C@@H]2CN(CCc3c([nH]c4ccccc34)[C@@](C(=O)OC)(c3cc4c(cc3OC)N(C)[C@H]3[C@@](O)(C(=O)OC)[C@H](OC(C)=O)[C@]5(CC)C=CCN6CC[C@]43[C@@H]65)C2)C1 [Vinblastine, Dimethyl (2β,3β,4β,5α,12β,19α)-15-[(5S,9S)-5-ethyl-5-hydroxy-9-(methoxycarbonyl)-1,4,5,6,7,8,9,10-octahydro-2 H-3,7-methanoazacycloundecino [5,4-b]indol-9-yl]-3-hydroxy-16-methoxy-1-methyl-6,7-didehydroaspidospermidine3,4-dicarboxylate] | Efflux transporter substrate |
| CC[C@]1(O)C[C@H]2CN(CCc3c([nH]c4ccccc34)[C@@](C(=O)OC)(c3cc4c(cc3OC)N(C=O)[C@H]3[C@@](O)(C(=O)OC)[C@H](OC(C)=O)[C@]5(CC)C=CCN6CC[C@]43[C@@H]65)C2)C1 [Vincristine, (3aR,3a1R,4R,5S,5aR,10bR)-Methyl 4-acetoxy-3a-ethyl-9-((5S,7S,9S)-5-ethyl-5-hydroxy-9-(methoxycarbonyl)-2,4,5,6,7,8,9,10-octahydro-1 H-3,7-methano[1]azacycloundecino[5,4-b]indol-9-yl)-6-formyl-5-hydroxy-8-methoxy3a,3a1,4,5,5a,6,11,12-octahydro-1 H-indolizino[8,1-cd]carbazole-5-carboxylate] | Efflux transporter substrate |
| COc1ccccc1N1CCN(CCN(C(=O)C2CCCCC2)c2ccccn2)CC1 [WAY-100635, N-(2-(4-(2-methoxyphenyl)piperazin-1-yl)ethyl)-N-(pyridin-2-yl)] | Positive |
| COC(=O)[C@H]1[C@@H](c2ccc(F)cc2)C[C@@H]2CC[C@H]1N2C/C=C/I [beta-CFT, (1R,2S,3S,5S)-methyl-3-(4-fluorophenyl)-8-((E)-3-iodoallyl)-8-azabicyclo[3.2.1]octane-2-carboxylate] | Positive |
